Patent US12234499B2, “Compositions, methods, systems and/or kits for detecting antimicrobial resistance in bacteria” (priority 2016, dated 2025)
Where two headings read alike, the source gives them in different places.

Key:
Format in all cases: cell-based
[1] = test system: Bacteria expressing Ambler Class B carbapenemases; test: Growth tests with chelating agents added to antibiotic
Protocol: (§1) Non-limiting embodiments of detection tests for enteric and non-fermenting bacteria, with various concentration ranges of one or more antibiotics, and various concentration ranges for one or more inhibitors are shown in FIG. 1-FIG. 24 and FIG. 31. These figures illustrate the concentration of the antibiotic being tested (in μg/ml) along the x-axis (not every concentration is tested in every figure), and the amount of growth of bacteria in the sample in the y-axis. The boxes illustrate the median, interquartile range, non-outlier minimum and maximum; with asterisks representing single outliers. Each figure has a panel for Class A, Class B, and Class D producing bacteria, as well as a panel for non-carbapenemase producing bacteria (NEG). In some embodiments, the detection tests described herein are not performed by imaging a change in cell morphology.

[2] = test system: E. coli G1693; test: Carbapenem MIC of study isolate; details: Escherichia coli, High AmpC, S12like (Table 2), High AmpC (Table 4.2)
[3] = test system: K. ozaenae 0096; test: Carbapenem MIC of study isolate; details: KPC
[4] = test system: E. cloacae G1735; test: Carbapenem MIC of study isolate; details: Enterobacter cloacae
[5] = test system: K. pneumoniae G1685; test: Carbapenem MIC of study isolate; details: Klebsiella pneumoniae, CMY-2-like
[6] = test system: E. cloacae G1693; test: Carbapenem MIC of study isolate; details: Enterobacter cloacae, IMP-8 (Table 4.1)
[7] = test system: K. pneumoniae G157; test: Carbapenem MIC of study isolate; details: Klebsiella pneumoniae, KPC-8
[8] = test system: S. marcescens G153; test: Carbapenem MIC of study isolate; details: Serratia marcescens, KPC
[9] = test system: C. freundii G1706; test: Carbapenem MIC of study isolate; details: Citrobacter freundii, KPC
[10] = test system: K. pneumoniae 0047; test: Carbapenem MIC of study isolate; details: Klebsiella pneumoniae, OmpK35
[11] = test system: P. aeruginosa G15; test: Carbapenem MIC of study isolate; details: Pseudomonas aeruginosa, KPC-5
[12] = test system: P. aeruginosa G15019; test: Carbapenem MIC of study isolate
[13] = test system: K. oxytoca G1640; test: Carbapenem MIC of study isolate; details: Klebsiella oxytoca, KPC
[14] = test system: P. mirabilis G1745; test: Carbapenem MIC of study isolate; details: Proteus mirabilis, CMY, TEM-1-like
[15] = test system: E. coli G164; test: Carbapenem MIC of study isolate; details: Escherichia coli, High AmpC (Table 2), SHV-12-like (Table 4.2)
[16] = test system: P. aeruginosa G15557; test: Carbapenem MIC of study isolate; details: VIM-like
[17] = test system: E. coli 0086; test: Carbapenem MIC of study isolate; details: Escherichia coli, CTX-M-9
[18] = test system: P. mirabilis 0155; test: Carbapenem MIC of study isolate; details: Proteus mirabilis, KPC
[19] = test system: K. pneumoniae G1675; test: Carbapenem MIC of study isolate; details: Klebsiella pneumoniae, KPC-2, SHV-5-like
[20] = test system: K. pneumoniae 0042; test: Carbapenem MIC of study isolate; details: Klebsiella pneumoniae, CTX-M-28, OmpK35, OmpK36
[21] = test system: P. mirabilis 0156; test: Carbapenem MIC of study isolate; details: Proteus mirabilis, KPC
[22] = test system: E. aerogenes G1614; test: Carbapenem MIC of study isolate; details: Klebsiella aerogenes, High AmpC
[23] = test system: E. aerogenes G1648; test: Carbapenem MIC of study isolate; details: Klebsiella aerogenes, High AmpC
[24] = test system: K. oxytoca 0147; test: Carbapenem MIC of study isolate; details: KPC
[25] = test system: E. cloacae G1691; test: Carbapenem MIC of study isolate; details: Enterobacter cloacae; IMP-8-producing E. cloacae G1691
[26] = test system: K. pneumoniae G158; test: Carbapenem MIC of study isolate; details: Klebsiella pneumoniae, KPC-8
[27] = test system: A. baumannii 0052; test: Carbapenem MIC of study isolate; details: Acinetobacter baumannii, OXA-58
[28] = test system: K. pneumoniae G1511; test: Carbapenem MIC of study isolate
[29] = test system: E. coli 0137; test: Carbapenem MIC of study isolate; details: Escherichia coli, NDM-6
[30] = test system: K. pneumoniae G1725; test: Carbapenem MIC of study isolate; details: Klebsiella pneumoniae, KPC
[31] = test system: K. pneumoniae 0044; test: Carbapenem MIC of study isolate; details: Klebsiella pneumoniae, CTX-M-15, TEM-1, SHV-1
[32] = test system: E. cloacae 0032; test: Carbapenem MIC of study isolate; details: Enterobacter cloacae, KPC-3, TEM-1
[33] = test system: E. coli 0058; test: Carbapenem MIC of study isolate; details: Escherichia coli, ESBL
[34] = test system: E. cloacae G1637; test: Carbapenem MIC of study isolate; details: Enterobacter cloacae, High AmpC
[35] = test system: M. morganii G1751; test: Carbapenem MIC of study isolate; details: Morganella morganii, High AmpC
[36] = test system: K. pneumoniae 0109; test: Carbapenem MIC of study isolate; details: Klebsiella pneumoniae, CTX-M-15, TEM-1, SHV-1
[37] = test system: K. pneumoniae 0079; test: Carbapenem MIC of study isolate; details: Klebsiella pneumoniae, CTX-M-14, OmpK35 (Table 4.2 also DHA-1)
[38] = test system: A. baumannii G1734; test: Carbapenem MIC of study isolate; details: Acinetobacter baumannii, OXA-40
[39] = test system: K. pneumoniae G1758; test: Carbapenem MIC of study isolate; details: Klebsiella pneumoniae, CLSI MHT negative control
[40] = test system: E. coli 0119; test: Carbapenem MIC of study isolate; details: Escherichia coli, NDM
[41] = test system: P. mirabilis G15185; test: Carbapenem MIC of study isolate
[42] = test system: K. pneumoniae 0043; test: Carbapenem MIC of study isolate; details: Klebsiella pneumoniae, SHV-12, OmpK36
[43] = test system: K. pneumoniae 0113; test: Carbapenem MIC of study isolate; details: Klebsiella pneumoniae, KPC-3
[44] = test system: bacteria expressing Classes A, B or D; test: Growth test with CLOX (FIG. 31); details: CLOX at a concentration of about 100 μg/ml
Protocol: as §1
(§2) In some embodiments, the detection tests can comprise a plurality of wells comprising enteric bacteria, CLOX at 0.1 mg/ml, and MEM over a range of concentrations of about 0.0156 μg/ml to about 64 μg/ml (FIG. 31).

[45] = test system: Bacteria expressing Class C β-lactamases; test: Growth test with CLOX (FIG. 31)
Protocol: as §1, §2

[46] = Pseudomonas aeruginosa, VIM-2, read-out: MIC
[47] = Pseudomonas aeruginosa, read-out: MIC
[48] = Klebsiella oxytoca, read-out: MIC
[49] = Klebsiella pneumoniae, KPC-4, read-out: MIC
[50] = Proteus mirabilis, IMP-27, read-out: MIC

## O=C(O)CN(CCN(CC(=O)O)CC(=O)O)CC(=O)O [EDTA, ethylenediaminetetraacetic acid]
[1]; FIG. 3, FIG. 4, FIG. 15 and FIG. 16 (with TEM/CLOX or DOR/CLOX)
  concentration at which bacteria are sensitive: 250 µg/mL
[1]; FIG. 5 and FIG. 6 (with TEM/CLOX)
  concentration at which bacteria are sensitive: 280 µg/mL

## O=C(O)c1cccc(C(=O)O)n1 [DPA, dipicolinic acid]
[1]; FIG. 9, FIG. 10, FIG. 21 and FIG. 22 (with MEM/CLOX or DOR/CLOX)
  concentration at which bacteria are sensitive: 180 µg/mL

## C[C@@H](O)[C@H]1C(=O)N2C(C(=O)O)=C(S[C@@H]3CN[C@H](C(=O)N(C)C)C3)[C@H](C)[C@H]12 [Meropenem]
[2]
  MIC: > 8 mg/L
[3]
  MIC: > 8 mg/L
[4]
  MIC: > 8 mg/L
[5]
  MIC: > 8 mg/L
[6]
  MIC: 0.5 mg/L
[7]
  MIC: > 8 mg/L
[8]
  MIC: > 8 mg/L
[9]
  MIC: 0.25 mg/L
[10]
  MIC: > 8 mg/L
[11]
  MIC: > 8 mg/L
[12]; [46]
  MIC: 4 mg/L
[13]
  MIC: > 8 mg/L
[14]
  MIC: ≤ 0.125 mg/L
[15]
  MIC: > 8 mg/L
[16]; [47]
  MIC: 4 mg/L
[17]
  MIC: > 8 mg/L
[18]
  MIC: 8 mg/L
[19]
  MIC: > 8 mg/L
[20]
  MIC: 4 mg/L
[21]
  MIC: 0.25 mg/L
[22]
  MIC: > 8 mg/L
[23]
  MIC: > 8 mg/L
[24]; listed as MEM
  MIC: >8 mg/L
[24]; [48]
  MIC: > 8 mg/L
[25]
  MIC: 0.5 mg/L
[26]
  MIC: > 8 mg/L
[27]
  MIC: 8 mg/L
[28]; [49]
  MIC: 2 mg/L
[29]
  MIC: > 8 mg/L
[30]
  MIC: > 8 mg/L
[31]
  MIC: > 8 mg/L
[32]
  MIC: 2 mg/L
[33]
  MIC: 0.5 mg/L
[34]
  MIC: > 8 mg/L
[35]
  MIC: 4 mg/L
[36]
  MIC: 8 mg/L
[37]
  MIC: > 8 mg/L
[38]
  MIC: > 8 mg/L
[39]
  MIC: 1 mg/L
[40]
  MIC: > 8 mg/L
[41]; IMP-27, listed as MEM
  MIC: >8 mg/L
[41]; [50]
  MIC: > 8 mg/L
[42]
  MIC: > 8 mg/L
[43]
  MIC: > 8 mg/L

## C[C@@H](O)[C@H]1C(=O)N2C(C(=O)O)=C(SCCN=CN)C[C@H]12 [Imipenem]
[2]
  MIC: > 8 mg/L
[3]
  MIC: > 8 mg/L
[4]
  MIC: > 8 mg/L
[5]
  MIC: > 8 mg/L
[6]
  MIC: 4 mg/L
[7]
  MIC: > 8 mg/L
[8]
  MIC: > 8 mg/L
[9]
  MIC: 2 mg/L
[10]
  MIC: > 8 mg/L
[11]
  MIC: > 8 mg/L
[12]; [46]
  MIC: > 8 mg/L
[12]; VIM-2, listed as IPM
  MIC: >8 mg/L
[13]
  MIC: > 8 mg/L
[14]
  MIC: 8 mg/L
[15]
  MIC: > 8 mg/L
[16]; [47]
  MIC: > 8 mg/L
[16]; listed as IPM
  MIC: >8 mg/L
[17]
  MIC: > 8 mg/L
[18]
  MIC: > 8 mg/L
[19]
  MIC: > 8 mg/L
[20]
  MIC: 1 mg/L
[21]
  MIC: 8 mg/L
[22]
  MIC: > 8 mg/L
[23]
  MIC: > 8 mg/L
[24]; listed as IPM
  MIC: >8 mg/L
[24]; [48]
  MIC: > 8 mg/L
[25]
  MIC: 4 mg/L
[26]
  MIC: > 8 mg/L
[27]
  MIC: > 8 mg/L
[28]; [49]
  MIC: 4 mg/L
[29]
  MIC: > 8 mg/L
[30]
  MIC: > 8 mg/L
[31]
  MIC: > 8 mg/L
[32]
  MIC: 4 mg/L
[33]
  MIC: ≤ 0.25 mg/L
[34]
  MIC: > 8 mg/L
[35]
  MIC: 4 mg/L
[36]
  MIC: 4 mg/L
[37]
  MIC: > 8 mg/L
[38]
  MIC: > 8 mg/L
[39]
  MIC: 4 mg/L
[40]
  MIC: > 8 mg/L
[41]; [50]
  MIC: 8 mg/L
[42]
  MIC: > 8 mg/L
[43]
  MIC: > 8 mg/L

## Cc1onc(-c2ccccc2Cl)c1C(=O)N[C@@H]1C(=O)N2[C@@H]1SC(C)(C)[C@@H]2C(=O)O [CLOX, cloxacillin]
[44]
  sensitivity to CLOX: typically not
[45]
  concentration at which bacteria are sensitive: about 100 μg/ml

## C[C@@H](O)[C@H]1C(=O)N2C(C(=O)O)=C(S[C@@H]3CN[C@H](C(=O)Nc4cccc(C(=O)O)c4)C3)[C@H](C)[C@H]12 [Ertapenem]
[2]
  MIC: > 1 mg/L
[3]
  MIC: > 1 mg/L
[4]
  MIC: > 1 mg/L
[5]
  MIC: > 1 mg/L
[6]
  MIC: 0.5 mg/L
[7]
  MIC: > 1 mg/L
[8]
  MIC: > 1 mg/L
[9]
  MIC: 1 mg/L
[10]
  MIC: > 1 mg/L
[11]
  MIC: > 1 mg/L
[12]; [46]
  MIC: > 1 mg/L
[12]; VIM-2, listed as ERT
  MIC: >1 mg/L
[13]
  MIC: > 1 mg/L
[14]
  MIC: ≤ 0.25 mg/L
[15]
  MIC: > 1 mg/L
[16]; [47]
  MIC: > 1 mg/L
[16]; listed as ERT
  MIC: >1 mg/L
[17]
  MIC: > 1 mg/L
[18]
  MIC: > 1 mg/L
[19]
  MIC: > 1 mg/L
[20]
  MIC: > 1 mg/L
[21]
  MIC: 0.5 mg/L
[22]
  MIC: > 1 mg/L
[23]
  MIC: > 1 mg/L
[24]; listed as ERT
  MIC: >1 mg/L
[24]; [48]
  MIC: > 1 mg/L
[25]
  MIC: > 1 mg/L
[26]
  MIC: > 1 mg/L
[27]
  MIC: > 1 mg/L
[28]; KPC-4, listed as ERT
  MIC: >1 mg/L
[28]; [49]
  MIC: > 1 mg/L
[29]
  MIC: > 1 mg/L
[30]
  MIC: > 1 mg/L
[31]
  MIC: > 1 mg/L
[32]
  MIC: > 1 mg/L
[33]
  MIC: > 1 mg/L
[34]
  MIC: > 1 mg/L
[35]
  MIC: > 1 mg/L
[36]
  MIC: > 1 mg/L
[37]
  MIC: > 1 mg/L
[38]
  MIC: > 1 mg/L
[39]
  MIC: > 1 mg/L
[40]
  MIC: > 1 mg/L
[41]; IMP-27, listed as ERT
  MIC: >1 mg/L
[41]; [50]
  MIC: > 1 mg/L
[42]
  MIC: > 1 mg/L
[43]
  MIC: > 1 mg/L
